Results from US9828369B2, “Isoquinoline derivatives useful as inhibitors of diacylglyceride O-acyltransferase 2” (Merck Sharp & Dohme Corp., priority 2014, dated 2017).

Biological target: hDGAT2 (Homo sapiens (Human), UniProt Q96PD7)
Assay: DGAT2 enzymatic activity assay (triolein formation, LC/MS/MS)
Details: not given

Sequence of hDGAT2 (Q96PD7 whole entry): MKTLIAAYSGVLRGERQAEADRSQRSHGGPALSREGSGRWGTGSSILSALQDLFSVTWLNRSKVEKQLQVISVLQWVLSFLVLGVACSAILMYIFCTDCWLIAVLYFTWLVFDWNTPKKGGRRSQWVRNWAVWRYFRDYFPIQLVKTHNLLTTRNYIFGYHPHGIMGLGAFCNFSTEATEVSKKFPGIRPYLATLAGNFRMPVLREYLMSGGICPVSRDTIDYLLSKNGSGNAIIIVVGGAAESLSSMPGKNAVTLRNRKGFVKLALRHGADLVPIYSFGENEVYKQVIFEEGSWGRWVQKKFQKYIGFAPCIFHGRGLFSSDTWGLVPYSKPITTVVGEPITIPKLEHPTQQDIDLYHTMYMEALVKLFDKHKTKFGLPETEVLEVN

Row | SMILES | IC50 [nM]
1 | COc1cccc(-c2ccc(CNC(=O)c3ccc(-n4cccn4)cc3)c3cnccc23)c1 [Example 65, N-((5-(3-methoxyphenyl)isoquinolin-8-yl)methyl)-4-(1H-pyrazol-1-yl)benzamide] | 2000

Same assay, conditions: read-out: IC50 values for inhibition of DGAT2; membrane prep of Sf-9 cells expressing hDGAT2; 25 μM diolein, 10 μM oleoyl-CoA; room temperature; triolein by LC/MS/MS

Row | SMILES | IC50 [nM]
2 | COc1cccc(-c2ccc(CNC(=O)c3cc(C(F)(F)F)n[nH]3)c3cnccc23)c1 [Example 29, N-((5-(3-methoxyphenyl)isoquinolin-8-yl)methyl)-3-(trifluoromethyl)-1H-pyrazole-5-carboxamide] | 1770
3 | COc1cccc(-c2ccc(CNC(=O)CC3(c4ccccc4)CCN(C(=O)OC(C)(C)C)C3)c3cnccc23)c1 (stereo not shown) [Example 95, tert-butyl 3-(2-(((5-(3-methoxyphenyl)isoquinolin-8-yl)methyl)amino)-2-oxoethyl)-3-phenylpyrrolidine-1-carboxylate] | 1310
4 | O=C(NCc1ccc(-c2cccc(C(=O)N3CCOCC3)c2)c2ccncc12)Nc1cccc(Cl)c1Cl [Example 166, 1-(2,3-dichlorophenyl)-3-((5-(3-(morpholine-4-carbonyl)phenyl)isoquinolin-8-yl)methyl)urea] | 4410
5 | COc1cccc(-c2ccc(CNC(=O)Cc3nnc(-c4ccccc4)[nH]3)c3cnccc23)c1 [Example 81, N-((5-(3-methoxyphenyl)isoquinolin-8-yl)methyl)-2-(5-phenyl-4H-1,2,4-triazol-3-yl)acetamide] | 483
6 | COc1cccc(-c2ccc(CNC(=O)C(C)c3cccc(F)c3)c3cnccc23)c1 (stereo not shown) [Example 135, 2-(3-fluorophenyl)-N-((5-(3-methoxyphenyl)isoquinolin-8-yl)methyl)propanamide] | 2000
7 | COC(=O)c1cccc(-c2ccc(CNC(=O)[C@@H]3C[C@H]3c3ccccc3)c3cnccc23)c1 [Example 3, methyl 3-(8-(((1R,2R)-2-phenylcyclopropanecarboxamido)methyl)isoquinolin-5-yl)benzoate] | 82.7
8 | COc1cccc(-c2ccc(CNC(=O)c3ccccc3-n3cnnn3)c3cnccc23)c1 [Example 90, N-((5-(3-methoxyphenyl)isoquinolin-8-yl)methyl)-2-(1H-tetrazol-1-yl)benzamide] | 902
9 | NC(=O)c1cccc(-c2ccc(CNC(=O)C3CC3c3ccccc3)c3cnccc23)c1 (stereo not shown) [Example 22, 3-(8-((2-phenylcyclopropanecarboxamido)methyl)isoquinolin-5-yl)benzamide] | 6270
10 | COc1cccc(-c2ccc(CNC(=O)c3cncc(-c4ccccc4)c3)c3cnccc23)c1 [Example 129, N-((5-(3-methoxyphenyl)isoquinolin-8-yl)methyl)-5-phenylnicotinamide] | 2990
11 | COc1cccc(-c2ccc(CNC(=O)c3ccc(-c4ccccc4)o3)c3cnccc23)c1 [Example 83, N-((5-(3-methoxyphenyl)isoquinolin-8-yl)methyl)-5-phenylfuran-2-carboxamide] | 1450
12 | COc1cccc(-c2ccc(CNC(=O)c3cncc(Br)c3)c3cnccc23)c1 [Example 28, 5-bromo-N-((5-(3-methoxyphenyl)isoquinolin-8-yl)methyl)nicotinamide] | 3930
13 | COc1cccc(-c2ccc(CNC(=O)Cc3ccc(Cl)cc3)c3cnccc23)c1 [Example 47, 2-(4-chlorophenyl)-N-((5-(3-methoxyphenyl)isoquinolin-8-yl)methyl)acetamide] | 1400
14 | COc1cccc(-c2ccc(CNC(=O)Cc3ccccc3OC(F)(F)F)c3cnccc23)c1 [Example 61, N-((5-(3-methoxyphenyl)isoquinolin-8-yl)methyl)-2-(2-(trifluoromethoxy)phenyl)acetamide] | 758
15 | COc1cccc(-c2ccc(CNC(=O)c3ccn(C)n3)c3cnccc23)c1 [Example 154, N-((5-(3-methoxyphenyl)isoquinolin-8-yl)methyl)-1-methyl-1H-pyrazole-3-carboxamide] | 3270
16 | COc1cccc(-c2ccc(CNC(=O)c3cc(Br)cnc3C(F)(F)F)c3cnccc23)c1 [Example 121, 5-bromo-N-((5-(3-methoxyphenyl)isoquinolin-8-yl)methyl)-2-(trifluoromethyl)nicotinamide] | 1180
